Assay results as given in US10391095B2, “DNA-PK inhibitors” (Vertex Pharmaceuticals Incorporated, priority 2012, dated 2019).

Target: DNA-PK (Homo sapiens, UniProt P78527)
Test: DNA-PK inhibition assay (radiometric, 33P-ATP)
Type: biochemical
Settings: 100 μM ATP, competitive tight-binding fit
Outline: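 33P transfer from 100 µM ATP to a DNA-PK peptide (0.8 mg/mL) is measured after 45 min, using about 6 nM enzyme activated by 10 µg/mL sheared dsDNA (HEPES pH 7.5, MgCl2, DTT). Filter-bound counts fitted to a competitive tight-binding inhibition model give Ki.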

Row | SMILES | Ki [nM]
1 | CNC(=O)c1ccnc2c([C@H](C)CNc3cc(-c4ccc(CC(C)C)nc4)ncn3)cccc12 [Compound 816] | < 30
2 | CNc1ncc(-c2cc(NC[C@@H](C)c3ccnc4c3OCCO4)ncn2)cn1 [Compound 462, (S)—N^6-(2-(2,3-dihydro-[1,4]dioxino[2,3-b]pyridin-8-yl)propyl)-N^2′-methyl-[4,5′-bipyrimidine]-2′,6-diamine] | < 30
3 | CNC(=O)c1c(F)cnc2c([C@H](C)CNc3cc(-c4cnc(C5CCOCC5)nc4)ncn3)cccc12 [Compound 833] | < 30
4 | CNC(=O)c1ccc([C@H](C)CNc2cc(-c3ccc(NCC4CC4)nc3)ncn2)c(OC)c1 [Compound 364] | < 30
5 | CNC(=O)c1ccnc2c([C@H](C)CNc3cc(-c4ccc5ncccc5c4)ncn3)cccc12 [Compound 582] | < 30
6 | CCOc1ncc(-c2cc(NC[C@@H](C)c3ccc(F)c4c(C(=O)NC)ccnc34)ncn2)cn1 [Compound 652] | < 30
7 | CNC(=O)c1ccc(C(C)CNc2cc(-c3ccc(N4CCN(C(C)=O)CC4)nc3)ncn2)c(OC)c1 (stereo not drawn) [Compound 130] | < 30
8 | CNC(=O)c1ccc([C@H](C)CNc2cc(-c3ccc(NC(CO)CO)nc3)ncn2)c(OC)c1 [Compound 353] | < 30
9 | Cc1ccc(-c2cc(NCC(C)c3cncc4cccnc34)ncn2)cn1 (stereo not drawn) [Compound 414] | < 30
10 | CNC(=O)c1ccnc2c([C@H](C)CNc3cc(-c4cncc(N5CCOCC5)c4)ncn3)ccc(F)c12 [Compound 915] | < 30
11 | CCN(C)c1ccc(-c2cc(NC[C@@H](C)c3ccc(C(=O)NC)cc3OC)ncn2)cn1 [Compound 362] | < 30
12 | CNC(=O)c1ccnc2c([C@H](C)CNc3cc(-c4cnc(C(C)(C)C)nc4)ncn3)cccc12 [Compound 791] | < 30
13 | COc1ccccc1[C@H](C)CNc1cc(-c2cnc3c(cnn3CCO)c2)ncn1 [Compound 127] | < 30
14 | CNC(=O)c1c(F)cnc2c([C@H](C)CNc3cc(-c4cn[nH]c4)ncn3)cccc12 [Compound 785] | < 30
15 | CNC(=O)c1ccnc2c([C@H](C)CNc3cc(-c4ccc(C(=O)NC5CC5)cc4)ncn3)cccc12 [Compound 752] | < 30
16 | Cc1ccc(-c2cc(NC[C@@H](C)c3cccc4c(C(N)=O)ccnc34)ncn2)cn1 [Compound 494] | < 30
17 | CNC(=O)c1ccnc2c([C@H](C)CNc3cc(-c4ccc(NC5CC5)nc4)ncn3)cccc12 [Compound 628] | < 30
18 | CNC(=O)c1c(F)cnc2c([C@H](C)CNc3cc(-c4cccs4)ncn3)cccc12 [Compound 689] | < 30
19 | CNC(=O)c1c(F)cnc2c([C@H](C)CNc3cc(-c4cnnc(C)c4)ncn3)cccc12 [Compound 968] | < 30
20 | CNC(=O)c1ccnc2c([C@H](C)CNc3cc(-c4cncc(C)c4)ncn3)cccc12 [Compound 792] | < 30
21 | CNC(=O)c1ccc(C(C)CNc2cc(-c3ccc(OCC4CCC4)nc3)ncn2)c(OC)c1 (stereo not drawn) [Compound 321] | < 30
22 | CNC(=O)c1ccnc2c([C@H](C)CNc3cc(-c4ccc(C(O)C(C)C)nc4)ncn3)cccc12 (stereo partly drawn) [Compound 925] | < 30
23 | CNC(=O)c1ccnc2c([C@H](C)CNc3cc(-c4ccc(N5CCOC(C)(C)C5)nc4)ncn3)cccc12 [Compound 733] | < 30
24 | Cc1ccc(-c2cc(NCC(C)c3ccccc3OC3CCC3)ncn2)cn1 (stereo not drawn) [Compound 240] | < 30
25 | CNC(=O)c1ccnc2c([C@H](C)CNc3cc(-c4cnc(N5CCOCC5)nc4)ncn3)cccc12 [Compound 650] | < 30

Row | SMILES | Ki [nM]
26 | CNC(=O)c1ccc([C@H](C)CNc2cc(-c3ccc(C(C)=O)cc3)ncn2)c(OC)c1 [Compound 319] | < 30
27 | CNC(=O)c1ccc(C(C)CNc2cc(-c3ccc4c(c3)c(C)nn4CCO)ncn2)c(OC)c1 (stereo not drawn) [Compound 272] | < 30
28 | CNC(=O)c1ccnc2c([C@H](C)CNc3cc(-c4cnc5c(c4)CCCO5)ncn3)cccc12 [Compound 793] | < 30
29 | CNC(=O)c1ccnc2c([C@H](C)CNc3cc(-c4cncc(C(C)(C)O)c4)ncn3)cccc12 [Compound 879] | < 30
30 | CNC(=O)c1ccc([C@H](C)CNc2cc(-c3ccc4c(c3)NC(=O)C4)ncn2)c(OC)c1 [Compound 311] | < 30
31 | COc1cc(F)c(F)cc1[C@H](C)CNc1cc(-c2ccc(C)nc2)ncn1 [Compound 128] | < 30
32 | CCNC(=O)c1ccnc2c([C@H](C)CNc3cc(-c4ccc(C)nc4)ncn3)cccc12 [Compound 545] | < 30
33 | CNC(=O)c1ccnc2c([C@H](C)CNc3cc(-c4ccc(S(C)(=O)=O)nc4)ncn3)cccc12 [Compound 587] | < 30
34 | CNC(=O)c1ccc([C@H](C)CNc2cc(-c3ccc(C)nc3)ncn2)c2ncccc12 [Compound 485] | < 30
35 | CCOc1cc(F)ccc1[C@H](C)CNc1cc(-c2ccc(N3CCN(C)CC3)nc2)ncn1 [Compound 120] | < 30
36 | Cc1ccc(-c2cc(NC[C@@H](C)c3ccnc4cccnc34)ncn2)cn1 [Compound 495] | < 30
37 | Cc1ccc(-c2cc(NC[C@@H](C)c3ccccc3O)ncn2)cn1 [Compound 109] | < 30
38 | CNC(=O)c1ccnc2c([C@H](C)CNc3cc(-c4cnc(COC)nc4)ncn3)cccc12 [Compound 886] | < 30
39 | Cc1ncc(-c2cc(NC[C@@H](C)c3ccnc4c3OCC4)ncn2)cn1 [Compound 416] | < 30
40 | [2H]C([2H])([2H])NC(=O)c1ccnc2c([C@H](C)CNc3cc(-c4cnc(C)nc4)ncn3)cccc12 [Compound 654] | < 30
41 | CNC(=O)c1ccnc2c([C@H](C)CNc3cc(-c4ccc(OCC5CC5)nc4)ncn3)cccc12 [Compound 891] | < 30
42 | CCOC(=O)c1cn2c(n1)CN(c1cc(NC[C@@H](C)c3cccc4c(C(=O)NC)ccnc34)ncn1)CC2 [Compound 794] | < 30
43 | CNC(=O)c1ccnc2c([C@H](C)CNc3cc(-c4ccc(NCCc5ccc(C)o5)nc4)ncn3)cccc12 [Compound 738] | < 30
44 | C#CCNc1ccc(-c2cc(NC[C@@H](C)c3ccc(C(=O)NC)cc3OC)ncn2)cn1 [Compound 385] | < 30
45 | COc1cc(C(=O)NO)ccc1C(C)CNc1cc(-c2ccc(C)nc2)ncn1 (stereo not drawn) [Compound 156] | < 30
46 | CC(=O)Nc1cnc2c([C@H](C)CNc3cc(-c4ccc(C)nc4)ncn3)cccc2c1 [Compound 742] | < 30
47 | CNC(=O)c1ccnc2c([C@H](C)CNc3cc(-c4cc(F)c(F)c(F)c4)ncn3)cccc12 [Compound 873] | < 30
48 | C[C@H](CNc1cc(-c2ccc3ncccc3c2)ncn1)c1ccnc2c1OCC2 [Compound 480] | < 30
49 | CNC(=O)c1c(F)cnc2c([C@H](C)CNc3cc(-c4cncc(C)c4)ncn3)cccc12 [Compound 772] | < 30
50 | Cc1ncc(-c2cc(NC[C@@H](C)c3cccc4nccnc34)ncn2)cn1 [Compound 662] | < 30

Row | SMILES | Ki [nM]
51 | CNC(=O)c1ccnc2c([C@H](C)CNc3cc(-c4cncc(N5CCOCC5)c4)ncn3)cccc12 [Compound 912] | < 30
52 | COc1ccccc1[C@H](C)CNc1cc(-c2ccc(Nc3nn[nH]n3)nc2)ncn1 [Compound 203] | < 30
53 | CNC(=O)c1ccnc2c([C@H](C)CNc3cc(-c4cncc(C)c4)ncn3)ccc(F)c12 [Compound 651] | < 30
54 | CNC(=O)c1ccc([C@H](C)CNc2cc(-c3ccc(Nc4ccncc4)nc3)ncn2)c(OC)c1 [Compound 396] | < 30
55 | CCOc1ccccc1CCNc1cc(-c2ccc(N3CC[C@@H](O)C3)nc2)ncn1 [Compound 99] | < 30
56 | CNC(=O)c1ccc([C@H](C)CNc2cc(-c3cn(C4COC4)c4ncccc34)ncn2)c(OC)c1 [Compound 481] | < 30
57 | CNC(=O)c1ccc([C@H](C)CNc2cc(-c3cnc(NC)nc3)ncn2)c(OC)c1 [Compound 304] | < 30
58 | CCOc1ccccc1CCNc1cc(-c2ccc(N3CC[C@H](O)C3)nc2)ncn1 [Compound 98] | < 30
59 | CNC(=O)c1ccnc2c([C@H](C)CNc3cc(-c4ccc(N5CCOC(C)C5)nc4)ncn3)cccc12 (single isomer, unassigned) [Compound 713] | < 30
60 | Cc1ccc(-c2cc(NCC(C)c3cccc4c3OCC(=O)N4)ncn2)cn1 (stereo not drawn) [Compound 435] | < 30
61 | CNC(=O)c1ccc(C(C)CNc2cc(-c3cnc4c(cnn4C)c3)ncn2)c(OC)c1 (stereo not drawn) [Compound 188] | < 30
62 | CNC(=O)c1ccnc2c([C@H](C)CNc3cc(-c4ccc(N(C)C5CCN(C)CC5)nc4)ncn3)cccc12 [Compound 634] | < 30
63 | COc1ccccc1[C@H](C)CNc1cc(-c2ccc(NC3CCN(C)CC3)nc2)ncn1 [Compound 254] | < 30
64 | CNc1ncc(-c2cc(NC[C@@H](C)c3ccccc3OC)ncn2)cn1 [Compound 137] | < 30
65 | CNC(=O)c1ccc(C(C)CNc2cc(-c3cnc4c(cnn4CCO)c3)ncn2)c(OC)c1 (stereo not drawn) [Compound 153] | < 30
66 | CNC(=O)c1ccnc2c([C@H](C)CNc3cc(-c4cncc(-c5nnco5)c4)ncn3)cccc12 [Compound 960] | < 30
67 | CNC(=O)c1ccc([C@H](C)CNc2cc(-c3ccc(F)nc3)ncn2)c(OC)c1 [Compound 328] | < 30
68 | CNC(=O)c1ccc(-c2cc(NC[C@@H](C)c3cccc4c(C(=O)NC)ccnc34)ncn2)s1 [Compound 776] | < 30
69 | CNC(=O)c1ccc([C@H](C)CNc2cc(-c3cnc4c(ccn4CC4CC4)c3)ncn2)c(OC)c1 [Compound 253] | < 30
70 | CC(=O)c1ccc(-c2cc(NC[C@@H](C)c3ccnc4c3OCCO4)ncn2)cc1 [Compound 456] | < 30
71 | COCCn1ncc2cc(-c3cc(NCC(C)c4cnccc4OC4CC4)ncn3)cnc21 (stereo not drawn) [Compound 176] | < 30
72 | CNC(=O)c1ccnc2c([C@H](C)CNc3cc(-c4ccc5c(c4)CCN(C(=O)COC)C5)ncn3)cccc12 [Compound 835] | < 30
73 | CNC(=O)c1ccc([C@H](C)CNc2cc(-c3ccc(N4CCCC4=O)cc3)ncn2)c(OC)c1 [Compound 313] | < 30
74 | COc1ccc(Br)cc1C(C)CNc1cc(-c2ccc(C)nc2)ncn1 (stereo not drawn) [Compound 245] | < 30
75 | COc1ccccc1CCNc1cc(-c2ccc3ncccc3c2)ncn1 [Compound 1] | < 30
